Measured values published in patent publication US11578077B2, “Spiro-oxazolones” (Hoffmann-La Roche Inc., priority 2013, dated 2023).

Molecular target: human V1a receptor (Homo sapiens (Human), UniProt P37288)
Test: human V1a receptor binding studies (3H-Vasopressin, SPA beads)
Settings: membranes of HEK293 cells transiently transfected with human V1a receptor, Ki by Cheng-Prusoff
Experimental: The human V1a receptor was cloned by RT-PCR from total human liver RNA. The coding sequence was subcloned in an expression vector after sequencing to confirm the identity of the amplified sequence. […] Cell membranes were prepared from HEK293 cells transiently transfected with the expression vector and grown in 20 liter fermenters with the following protocol.
50 g of cells are re-suspended in 30 ml freshly prepared ice cold Lysis buffer ([…] HEPES. 1 mM EDTA, 10 mM MgCl2 adjusted to pH=7.4+complete cocktail of protease inhibitor (Roche Diagnostics)). Homogenized with Polytron for 1 min and sonicated on ice for 2×2 minutes at 80% intensity (Vibracell sonicator). The preparation is centrifuged 20 min at 500 g at 4° C., the pellet is discarded and the supernatant centrifuged 1 hour at 43'000 g at 4° C. (19'000 rpm). The pellet is re-suspended in 12.5 ml Lysis buffer+12.5 ml Sucrose 20% and homogenized using a Polytron for 1-2 min. The protein concentration is determined by the Bradford method and aliquots are stored at −80° C. until use. For binding studies 60 mg Yttrium silicate SPA beads (Amersham) are mixed with an aliquot of membrane in binding buffer (50 mM Tris, 120 mM NaCl, 5 mM KCl, 2 mM CaCl2, 10 mM MgCl) for 15 minutes with mixing. 50 μl of bead/membrane mixture is then added to each well of a 96 well plate, followed by […] of 4 nM 3H-Vasopressin (American Radiolabeled Chemicals). For total binding measurement 100 μl of binding buffer are added to the respective wells, for non-specific binding 100 μl of […] cold vasopressin and for compound testing 100 μl of a serial dilution of each compound in 2% DMSO. The plate is incubated 1 h at room temperature, centrifuged 1 min at 1000 g and counted on a Packard Top-Count. Non-specific binding counts are subtracted from each well and data is normalized to the maximum specific binding set at 100%. To calculate an IC 50 the curve is fitted using a non-linear regression model (XLfit) and the Ki is calculated using the Cheng-Prussoff equation.

Sequence of human V1a receptor (P37288 whole entry): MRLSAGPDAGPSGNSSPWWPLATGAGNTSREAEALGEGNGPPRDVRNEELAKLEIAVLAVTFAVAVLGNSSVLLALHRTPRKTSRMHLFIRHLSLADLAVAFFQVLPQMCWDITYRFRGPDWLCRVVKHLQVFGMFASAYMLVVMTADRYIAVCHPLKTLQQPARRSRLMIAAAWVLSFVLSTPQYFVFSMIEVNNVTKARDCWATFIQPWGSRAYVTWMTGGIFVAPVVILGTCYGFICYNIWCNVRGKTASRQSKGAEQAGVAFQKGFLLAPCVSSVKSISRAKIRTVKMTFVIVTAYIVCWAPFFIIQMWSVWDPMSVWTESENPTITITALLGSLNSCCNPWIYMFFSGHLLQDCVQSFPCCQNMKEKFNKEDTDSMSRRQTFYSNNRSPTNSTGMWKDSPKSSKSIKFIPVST

SMILES | pKi hV1a | Ki (read-out: pKi hV1a (converted)) [pM]
O=C1OC2(CCN(C3=NC(=O)C4(Cc5ccccc5C4)O3)CC2)c2c(F)cccc21 [Example 16, 7-fluoro-1′-(4′-oxo-1,3-dihydro-4′H-spiro[indene-2,5′-[1,3]oxazol]-2′-yl)-3H-spiro[2-benzofuran-1,4′-piperidin]-3-one] | 8.7 | –
O=C1OC2(CCN(C3=NC(=O)C4(Cc5ccccc5C4)O3)CC2)c2ccc(Br)cc21 [Example 18, 5-bromo-1′-(4′-oxo-1,3-dihydro-4′H-spiro[indene-2,5′-[1,3]oxazol]-2′-yl)-3H-spiro[2-benzofuran-1,4′-piperidin]-3-one] | 8.4 | –
COc1ccc2c(c1)C1(CCN(C3=NC(=O)C4(Cc5ccccc5C4)O3)CC1)OC2=O [Example 10, 6-methoxy-1′-(4′-oxo-1,3-dihydro-4′H-spiro[indene-2,5′-[1,3]oxazol]-2′-yl)-3H-spiro[2-benzofuran-1,4′-piperidin]-3-one] | 8.6 | –
O=C1N=C(N2CCC3(CC2)OCc2cccnc23)OC12Cc1ccccc1C2 [Example 36, 2′-(1′H,5H-spiro[furo[3,4-b]pyridine-7,4′-piperidin]-1′-yl)-1,3-dihydro-4′H-spiro[indene-2,5′-[1,3]oxazol]-4′-one] | 8.6 | –
O=C1OC2(CCN(C3=NC(=O)C4(Cc5cc(F)c(F)cc5C4)O3)CC2)c2ccccc21 [Example 35, 1′-(5,6-difluoro-4′-oxo-1,3-dihydro-4′H-spiro[indene-2,5′-[1,3]oxazol]-2′-yl)-3H-spiro[2-benzofuran-1,4′-piperidin]-3-one] | 8.9 | –
Cc1ccc2c(c1)CC1(C2)OC(N2CCC3(CC2)OC(=O)c2ccccc23)=NC1=O (centres unmarked) [Example 22, 1′-(5-methyl-4′-oxo-1,3-dihydro-4′H-spiro[indene-2,5′-[1,3]oxazol]-2′-yl)-3H-spiro[2-benzofuran-1,4′-piperidin]-3-one] | 8.9 | –
COc1ccc2c(c1)CC1(C2)OC(N2CCC3(CC2)OC(=O)c2ccccc23)=NC1=O (centres unmarked) [Example 27, 1′-(5-methoxy-4′-oxo-1,3-dihydro-4′H-spiro[indene-2,5′-[1,3]oxazol]-2′-yl)-3H-spiro[2-benzofuran-1,4′-piperidin]-3-one] | 7.7 | –
COc1cc2c(cc1OC)CC1(C2)OC(N2CCC3(CC2)OC(=O)c2ccccc23)=NC1=O [Example 32, 1′-(5,6-dimethoxy-4′-oxo-1,3-dihydro-4′H-spiro[indene-2,5′-[1,3]oxazol)-2′-yl)-3H-spiro[2-benzofuran-1,4′-piperidin]-3-one] | 6.4 | –
O=C1OC2(CCN(C3=NC(=O)C4(Cc5ccccc5C4)O3)CC2)c2ccc(O)cc21 [Example 9, 5-hydroxy-1′-(4′-oxo-1,3-dihydro-4′H-spiro[indene-2,5′-[1,3]oxazol]-2′-yl)-3H-spiro[2-benzofuran-1,4′-piperidin]-3-one] | 9.7 | –
O=C1OC2(CCN(C3=NC(=O)C4(Cc5ccc(O)cc5C4)O3)CC2)c2ccccc21 (centres unmarked) [Example 28, 1′-(5-hydroxy-4′-oxo-1,3-dihydro-4′H-spiro[indene-2,5′-[1,3]oxazol]-2′-yl)-3H-spiro[2-benzofuran-1,4′-piperidin]-3-one] | 8.4 | –
Cc1ccc2c(c1)CC1(C2)OC(N2CCC3(CC2)OCc2ccccc23)=NC1=O (centres unmarked) [Example 21, 5-methyl-2′-(1′H,3H-spiro[2-benzofuran-1,4′-piperidin]-1′-yl)-1,3-dihydro-4′H-spiro[indene-2,5′-[1,3]oxazol]-4′-one] | 9.1 | –
O=C1N=C(N2CCC3(CC2)OCc2ccccc23)OC12Cc1ccc(F)cc1C2 (centres unmarked) [Example 30, 5-fluoro-2′-(1′H,3H-spiro[2-benzofuran-1,4′-piperidin]-1′-yl)-1,3-dihydro-4′H-spiro[indene-2,5′-[1,3]oxazol]-4′-one] | 9.0 | –
COc1ccc2c(c1)CC1(C2)OC(N2CCC3(CC2)OC(C)(C)c2ncccc23)=NC1=O (centres unmarked) [Example 40, 2′-(7,7-dimethyl-1′H,7H-spiro[furo[3,4-b]pyridine-5,4′-piperidin]-1′-yl)-5-methoxy-1,3-dihydro-4′H-spiro[indene-2,5′-[1,3]oxazol]-4′-one] | 8.3 | –
CC1(C)OC2(CCN(C3=NC(=O)C4(Cc5ccccc5C4)O3)CC2)c2ncccc21 [Example 38, 2′-(5,5-dimethyl-1′H,5H-spiro[furo[3,4-b]pyridine-7,4′-piperidin]-1′-yl)-1,3-dihydro-4′H-spiro[indene-2,5′-[1,3]oxazol]-4′-one] | 9.2 | –
O=C1N=C(N2CCC3(CC2)OCc2ncccc23)OC12Cc1ccccc1C2 [Example 37, 2′-(1′H,7H-spiro[furo[3,4-b]pyridine-5,4′-piperidin]-1′-yl)-1,3-dihydro-4′H-spiro[indene-2,5′-[1,3]oxazol]-4′-one] | 8.0 | –
O=C1N=C(N2CCC3(CC2)OCc2ccccc23)O[C@@]12CCc1ccccc12 [Example 20, (+)-2′-(1′H,3H-spiro[2-benzofuran-1,4′-piperidin]-1′-yl)-2,3-dihydro-4′H-spiro[indene-1,5′-[1,3]oxazol]-4′-one] | 6.6 | –

The remaining lines, values ahead:

pKi hV1a | Ki (read-out: pKi hV1a (converted)) [pM] | SMILES
9.1 | – | Cc1ccc2c(n1)C1(CCN(C3=NC(=O)C4(Cc5ccccc5C4)O3)CC1)OC2 [Example 42, 2′-(2-methyl-1′H,5H-spiro[furo[3,4-b]pyridine-7,4′-piperidin]-1′-yl)-1,3-dihydro-4′H-spiro[indene-2,5′-[1,3]oxazol]-4′-one]
7.6 | – | O=C1N=C(N2CCC3(CC2)OCc2ccccc23)OC12Cc1cnc(CF)cc1C2 (centres unmarked) [Example 59, 3-(fluoromethyl)-2′-(1′H,3H-spiro[2-benzofuran-1,4′-piperidin]-1′-yl)-5,7-dihydro-4′H-spiro[cyclopenta[c]pyridine-6,5′-[1,3]oxazol]-4′-one]
– | 794 | O=C1OC2(CCN(C3=NC(=O)[C@]4(CCc5ccccc5C4)O3)CC2)c2ccccc21 (single isomer, unassigned; enantiomer a) [Example 66, 1′-[4′-oxo-3,4-dihydro-1H,4′H-spiro[naphthalene-2,5′-[1,3]oxazol]-2′-yl]-1′H,3H-spiro[2-benzofuran-1,4′-piperidin]-3-one enantiomer A]
8.8 | – | O=C1OC2(CCN(C3=NC(=O)C4(CCc5ccccc5C4)O3)CC2)c2ccccc21 (centres unmarked) [Example 65, 1′-(4′-oxo-3,4-dihydro-1H,4′H-spiro[naphthalene-2,5′-[1,3]oxazol]-2′-yl)-1′H,3H-spiro[2-benzofuran-1,4′-piperidin]-3-one]
6.3 | – | O=C1N=C(N2CCC3(CC2)OCc2ccccc23)OC12Cc1cnc(CCl)cc1C2 (centres unmarked) [Example 57, 3-(chloromethyl)-2′-(1′H,3H-spiro[2-benzofuran-1,4′-piperidin]-1′-yl)-5,7-dihydro-4′H-spiro[cyclopenta[c]pyridine-6,5′-[1,3]oxazol]-4′-one]
8.3 | – | Cc1cnc2c(c1)C1(CCN(C3=NC(=O)C4(Cc5ccccc5C4)O3)CC1)OC2 [Example 52, 2′-(3-methyl-1′H,7H-spiro[furo[3,4-b]pyridine-5,4′-piperidin]-1′-yl)-1,3-dihydro-4′H-spiro[indene-2,5′-[1,3]oxazol]-4′-one]
8.5 | – | O=C1N=C(N2CCC3(CC2)OCc2ccccc23)OC12Cc1cnc(C(F)(F)F)cc1C2 (centres unmarked) [Example 61, 2′-(1′H,3H-spiro[2-benzofuran-1,4′-piperidin]-1′-yl)-3-(trifluoromethyl)-5,7-dihydro-4′H-spiro[cyclopenta[c]pyridine-6,5′-[1,3]oxazol]-4′-one]
